We go through 33 molecules from US20260007684A1, “AMIDE DERIVATIVES FOR INHIBITING NLRP3 AND USES THEREOF” (Ventus Therapeutics U.S., Inc., priority 2023, published 2026).

The target in one test is human NLRP3 (Homo sapiens (Human), UniProt Q96P20). The test can be described thus: Scintillation Proximity (SPA) NLRP3 Assay: displacement of 3H-MCC950. In kind it is binding. To be noted: SPA IC50, displacement of 3H-MCC950.
Sequence of human NLRP3 (Q96P20 whole entry): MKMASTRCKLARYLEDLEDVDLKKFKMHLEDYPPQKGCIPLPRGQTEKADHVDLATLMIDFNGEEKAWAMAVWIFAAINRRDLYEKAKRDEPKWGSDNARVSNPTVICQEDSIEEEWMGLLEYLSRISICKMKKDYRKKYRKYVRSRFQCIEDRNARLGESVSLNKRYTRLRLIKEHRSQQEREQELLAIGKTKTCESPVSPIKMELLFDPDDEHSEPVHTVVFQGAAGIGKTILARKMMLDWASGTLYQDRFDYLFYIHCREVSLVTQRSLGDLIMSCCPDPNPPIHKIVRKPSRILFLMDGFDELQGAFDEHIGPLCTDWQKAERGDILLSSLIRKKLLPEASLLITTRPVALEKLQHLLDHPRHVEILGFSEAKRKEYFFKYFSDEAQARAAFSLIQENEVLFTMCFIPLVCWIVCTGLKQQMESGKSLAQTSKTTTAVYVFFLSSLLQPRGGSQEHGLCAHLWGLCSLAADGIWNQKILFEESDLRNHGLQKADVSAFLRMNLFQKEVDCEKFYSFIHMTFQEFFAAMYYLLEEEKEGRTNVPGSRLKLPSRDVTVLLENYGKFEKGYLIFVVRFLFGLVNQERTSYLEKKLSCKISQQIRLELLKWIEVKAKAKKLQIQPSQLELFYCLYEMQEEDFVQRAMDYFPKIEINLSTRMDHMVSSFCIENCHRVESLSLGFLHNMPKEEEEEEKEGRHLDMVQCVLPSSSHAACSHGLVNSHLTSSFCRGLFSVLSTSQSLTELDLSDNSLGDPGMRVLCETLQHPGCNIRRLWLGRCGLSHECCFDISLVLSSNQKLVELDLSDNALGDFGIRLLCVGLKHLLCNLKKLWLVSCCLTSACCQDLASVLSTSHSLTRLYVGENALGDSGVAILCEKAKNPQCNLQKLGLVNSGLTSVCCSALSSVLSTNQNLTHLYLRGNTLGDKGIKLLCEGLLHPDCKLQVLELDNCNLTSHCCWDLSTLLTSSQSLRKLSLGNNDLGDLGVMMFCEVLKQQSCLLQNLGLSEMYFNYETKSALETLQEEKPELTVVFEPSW
Turning to `O=C(N[C@@H]1CCC[C@@H]2CC[C@H]1N2c1nnn[nH]1)C1(c2ccc(Cl)cc2)CC1` (single isomer, unassigned) [9A*, N-(9-(1H-tetrazol-5-yl)-9-azabicyclo[4.2.1]nonan-2-yl)-1-(4-chlorophenyl)cyclopropane-1-carboxamide], the IC50 was 1 to 10 µM.
For `O=C(N[C@@H]1CCC[C@H]2CC[C@@H]1N2c1nnn[nH]1)C1(c2ccc(Cl)cc2)CC1` (single isomer, unassigned) [9C*, N-(9-(1H-tetrazol-5-yl)-9-azabicyclo[4.2.1]nonan-2-yl)-1-(4-chlorophenyl)cyclopropane-1-carboxamide], the IC50 is more than 100 µM.
For the molecule `C[C@H]1C[C@H]2CC[C@@H]([C@H](NC(=O)C3(c4ccc(C(F)(F)F)cc4)CC3)C1)N2c1nnn[nH]1` [104G*, N-((1S,2R,4R,6R)-4-methyl-9-(1H-tetrazol-5-yl)-9-azabicyclo[4.2.1]nonan-2-yl)-1-(4-(trifluoromethyl)phenyl)cyclopropane-1-carboxamide], the IC50 fell in the range of 50 to 100 µM.
`C[C@@H]1C[C@@H]2CC[C@H]([C@H](NC(=O)C3(c4ccc(C(F)(F)F)cc4)CC3)C1)N2c1nnn[nH]1` [104E*, N-((1R,2R,4S,6S)-4-methyl-9-(1H-tetrazol-5-yl)-9-azabicyclo[4.2.1]nonan-2-yl)-1-(4-(trifluoromethyl)phenyl)cyclopropane-1-carboxamide]: the IC50 was 10 to 50 µM.

Staying with this test, now noted: displacement of 3H-MCC950; read-out: SPA IC50.
Regarding `Cc1cc(C2(C(=O)N[C@@H]3C[C@H](C)CCN(c4nnn[nH]4)C3)CC2)ccc1C(F)(F)F` (single isomer, unassigned) [6A*, N-(5-methyl-1-(1H-tetrazol-5-yl)azepan-3-yl)-1-(3-methyl-4-(trifluoromethyl)phenyl)cyclopropane-1-carboxamide], the IC50 lay in the range of 1 to 10 µM.
On the same count and under the same terms, then `O=C(N[C@H]1CC[C@@H]2CC[C@H]1N2c1nnn[nH]1)C1(c2ccc(Cl)cc2O)CC1` [75B*, N-((1R,2S,5R)-8-(1H-tetrazol-5-yl)-8-azabicyclo[3.2.1]octan-2-yl)-1-(4-chloro-2-hydroxyphenyl)cyclopropane-1-carboxamide], with 1 to 10 µM; and `C[C@@H]1C[C@H](NC(=O)C2(c3ccc(C(F)(F)F)cc3)CC2)[C@H]2CC[C@@H]1N2c1nnn[nH]1` [79B*, N-((1R,2S,4R,5S)-4-methy1-8-(1H-tetrazol-5-yl)-8-azabicyclo[3.2.1]octan-2-yl)-1-(4-(trifluoromethyl)phenyl)cyclopropane-1-carboxamide], with 10 to 50 µM.
As to `C[C@H]1C[C@@H](NC(=O)C2(c3ccc(C(F)(F)F)nc3O)CC2)CN(c2nnn[nH]2)C1` [Compound 24A, 1-(2-hydroxy-6-(trifluoromethyl)pyridin-3-yl)-N-((3R,5S)-5-methyl-1-(1H-tetrazol-5-yl)piperidin-3-yl)cyclopropane-1-carboxamide], the IC50 was in the range of 1 to 10 µM.
For `C[C@@H]1CCN(c2nnn[nH]2)C[C@@H](NC(=O)C2(c3ccc(SC(F)(F)F)cc3)CC2)C1` (single isomer, unassigned) [69B*], the IC50 was in the range of 10 to 50 µM.
The same measure, in the same setting: to `C[C@H]1CCN(c2nnn[nH]2)C[C@H](NC(=O)C2(c3ccc(C(F)(F)F)cc3O)CC2)C1` (single isomer, unassigned) [63C*] belongs 10 to 50 µM; to `Cc1ccc(C2(C(=O)N[C@@H]3C[C@H](C)[C@H]4CC[C@@H]3N4c3nnn[nH]3)CC2)cc1` [87C*, N-((1S,2R,4S,5R)-4-methy1-8-(1H-tetrazol-5-yl)-8-azabicyclo[3.2.1]octan-2-yl)-1-(p-tolyl)cyclopropane-1-carboxamide], more than 100 µM; to `C[C@@H]1C[C@H](NC(=O)C2(c3ccc(OC(F)(F)F)cc3)CC2)[C@H]2CC[C@@H]1N2c1nnn[nH]1` [82B*, N-((1R,2S,4R,5S)-4-methyl-8-(1H-tetrazol-5-yl)-8-azabicyclo[3.2.1]octan-2-yl)-1-(4-(trifluoromethoxy)phenyl)cyclopropane-1-carboxamide], more than 100 µM.
On the same count and under the same terms, to `C[C@H]1C[C@@H](NC(=O)C2(c3ccc(C(F)(F)F)cc3)CC2)[C@@H]2CC[C@H]1N2c1nnn[nH]1` [79C*, N-((1S,2R,4S,5R)-4-methy1-8-(1H-tetrazol-5-yl)-8-azabicyclo[3.2.1]octan-2-yl)-1-(4-(trifluoromethyl)phenyl)cyclopropane-1-carboxamide] belongs 10 to 50 µM.
For `C[C@H]1CCN(c2nnn[nH]2)C[C@H](NC(=O)C2(c3ccc(OC(F)(F)F)c(F)c3O)CC2)C1` (single isomer, unassigned) [28C*, 1-(3-fluoro-2-hydroxy-4-(trifluoromethoxy)phenyl)-N-(5-methyl-1-(1H-tetrazol-5-yl)azepan-3-yl)cyclopropane-1-carboxamide], the IC50 was more than 100 µM.
`C[C@H]1C[C@H](NC(=O)C2(c3ccc(OC(F)F)cc3)CC2)[C@@H]2CC[C@H]1N2c1nnn[nH]1` (single isomer, unassigned) [35D*]: the IC50 lay within 10 to 50 µM.
For `C[C@H]1C[C@H](NC(=O)C2(c3ccc(C(F)(F)F)cc3)CC2)[C@@H]2CC[C@H]1N2c1nnn[nH]1` [79D*, N-((1S,2S,4S,5R)-4-methyl-8-(1H-tetrazol-5-yl)-8-azabicyclo[3.2.1]octan-2-yl)-1-(4-(trifluoromethyl)phenyl)cyclopropane-1-carboxamide], the IC50 fell in the range of 10 to 50 µM.
As to `C[C@H]1CC[C@H](NC(=O)C2(c3ccc(Cl)cc3)CC2)CN(c2nnn[nH]2)C1` (single isomer, unassigned) [36B*, 1-(4-chlorophenyl)-N-(6-methyl-1-(1H-tetrazol-5-yl)azepan-3-yl)cyclopropane-1-carboxamide], the concentration for half-maximal inhibition (IC50) lay within 1 to 10 µM.
With `C[C@@H]1CCN(c2nnn[nH]2)C[C@@H](NC(=O)C2(c3cc(F)c(C(F)(F)F)cc3F)CC2)C1` (single isomer, unassigned) [7B*, 1-(2,5-difluoro-4-(trifluoromethyl)phenyl)-N-(5-methyl-1-(1H-tetrazol-5-yl)azepan-3-yl)cyclopropane-1-carboxamide], the IC50 was in the range of 10 to 50 µM.
For `C[C@@H]1CC[C@@H](NC(=O)C2(c3ccc(Cl)cc3O)CC2)CN(c2nnn[nH]2)C1` (single isomer, unassigned) [90C*], the IC50 was 10 to 50 µM.
Regarding `C[C@H]1CCN(c2nnn[nH]2)C[C@@H](NC(=O)C2(c3ccc(C(F)F)cc3O)CC2)C1` (single isomer, unassigned) [30D*, 1-(4-(difluoromethyl)-2-hydroxyphenyl)-N-(5-methyl-1-(1H-tetrazol-5-yl)azepan-3-yl)cyclopropane-1-carboxamide], the IC50 lay within 1 to 10 µM.
`C[C@H]1CCN(c2nnn[nH]2)C[C@@H](NC(=O)C2(c3ccc(OC(F)(F)F)c(F)c3O)CC2)C1` (single isomer, unassigned) [28D*, 1-(3-fluoro-2-hydroxy-4-(trifluoromethoxy)phenyl)-N-(5-methyl-1-(1H-tetrazol-5-yl)azepan-3-yl)cyclopropane-1-carboxamide]: the IC50 fell in the range of 1 to 10 µM.
The same measure, in the same setting: then `C[C@@H]1C[C@H](NC(=O)C2(c3ccc(OC(F)F)cc3)CC2)[C@@H]2CC[C@H]1N2c1nnn[nH]1` (single isomer, unassigned) [35H*], with more than 100 µM; and `C[C@H]1CCN(c2nnn[nH]2)C[C@H](NC(=O)C2(c3ccc(OC(F)F)c(F)c3)CC2)C1` (single isomer, unassigned) [73C*], with 10 to 50 µM; and `C[C@H]1CCN(c2nnn[nH]2)C[C@@H](NC(=O)C2(c3ccc(Cl)cc3Cl)CC2)C1` (single isomer, unassigned) [55D*], with 50 to 100 µM.
Consider `O=C(NC1CC(C2CC2)CN(c2nnn[nH]2)C1)C1(c2ccc(Cl)cc2)CC1` (single isomer, unassigned) [Rac-13A*/D*, 1-(4-chlorophenyl)-N-(5-cyclopropyl-1-(1H-tetrazol-5-yl)piperidin-3-yl)cyclopropane-1-carboxamide], for which the IC50 fell in the range of 1 to 10 µM.
Take `Cc1c(Cl)ccc(C2(C(=O)N[C@H]3C[C@@H](C)CCN(c4nnn[nH]4)C3)CC2)c1O` (single isomer, unassigned) [21D*, 1-(4-chloro-2-hydroxy-3-methylphenyl)-N-(5-methyl-1-(1H-tetrazol-5-yl)azepan-3-yl)cyclopropane-1-carboxamide]: the IC50 lay in the range of 10 to 50 µM.
Same read-out and setting: then `C[C@H]1C[C@@H](NC(=O)C2(c3cnc(C(F)(F)F)cc3O)CC2)CN(c2nnn[nH]2)C1` [Compound 26A, 1-(4-hydroxy-6-(trifluoromethyl)pyridin-3-yl)-N-((3R,5S)-5-methyl-1-(1H-tetrazol-5-yl)piperidin-3-yl)cyclopropane-1-carboxamide], with 1 to 10 µM; and `Cc1cc(C2(C(=O)N[C@@H]3C[C@@H](C)CCN(c4nnn[nH]4)C3)CC2)ccc1C(F)(F)F` (single isomer, unassigned) [6C*, N-(5-methyl-1-(1H-tetrazol-5-yl)azepan-3-yl)-1-(3-methyl-4-(trifluoromethyl)phenyl)cyclopropane-1-carboxamide], with more than 100 µM; and `C[C@H]1C[C@@H](NC(=O)C2(c3ccc(C4CC4)cc3)CC2)[C@@H]2CC[C@H]1N2c1nnn[nH]1` [81C*, 1-(4-cyclopropylphenyl)-N-((1S,2R,4S,5R)-4-methyl-8-(1H-tetrazol-5-yl)-8-azabicyclo[3.2.1]octan-2-yl)cyclopropane-1-carboxamide], with 50 to 100 µM.
On the same count and under the same terms, to `C[C@H]1CC[C@@H](NC(=O)C2(c3ccc(Cl)cc3)CC2)CN(c2nnn[nH]2)C1` (single isomer, unassigned) [36A*, 1-(4-chlorophenyl)-N-(6-methyl-1-(1H-tetrazol-5-yl)azepan-3-yl)cyclopropane-1-carboxamide] belongs less than 1 µM; to `C[C@@H]1CC[C@@H](NC(=O)C2(c3ccc(C4CC4)cc3O)CC2)CN(c2nnn[nH]2)C1` (single isomer, unassigned) [91C*], 50 to 100 µM; to `Cc1ccc(C2(C(=O)N[C@H]3C[C@H](C)[C@H]4CC[C@@H]3N4c3nnn[nH]3)CC2)cc1` [87D*, N-((1S,2S,4S,5R)-4-methy1-8-(1H-tetrazol-5-yl)-8-azabicyclo[3.2.1]octan-2-yl)-1-(p-tolyl)cyclopropane-1-carboxamide], more than 100 µM.
In the case of `C[C@@H]1CCN(c2nnn[nH]2)C[C@@H](NC(=O)C2(c3ccc(C4CCC4)cc3)CC2)C1` (single isomer, unassigned) [8B*, 1-(4-cyclobutylphenyl)-N-(5-methyl-1-(1H-tetrazol-5-yl)azepan-3-yl)cyclopropane-1-carboxamide], the IC50 lay within 10 to 50 µM.
